According to US20040110771A1, “7-(r)-aminotriazolopyrimidines, the production thereof and use of the same for combatting phytopathogenic fungi” (priority 2000, published 2004):

Columns and labels:
Format in all cases: in vivo
[1] = system: Pyrenophora teres; assay: Activity against net blotch of barley caused by Pyrenophora teres; conditions: barley seedlings "Igri", inoculated 24 h after spraying, 6 days
Method: (§1) The active compounds were prepared separately or jointly as a 10% strength emulsion in a mixture of 70% by weight of cyclohexanone, 20% by weight of Nekanil® LN (Lutensol® AP6, wetting agent having emulsifying and dispersing action based on ethoxylated alkylphenols) and 10% by weight of Wettol® EM (nonionic emulsifier based on ethoxylated castor oil) and diluted with water to the desired concentration.
Leaves of potted barley seedlings of the cultivar “Igri” were sprayed to runoff point with an aqueous preparation of active compound which had been prepared from a stock solution made of 10% of active compound, 85% of cyclohexanone and 5% of emulsifier and were inoculated 24 hours after the spray coating had dried on with an aqueous spore suspension of Pyrenophora teres, the net blotch pathogen. The test plants were then placed in a greenhouse at 20-24° C. and 95-100% relative atmospheric humidity. After 6 days, the extent of the development of the disease was determined visually in % infection of the entire leaf area.

[2] = system: Blumeria graminis forma specialis tritici; assay: Activity against mildew of wheat caused by Blumeria graminis forma specialis tritici; conditions: wheat seedlings "Kanzler", dusted with spores 24 h after spraying, 7 days
Method: as §1
Leaves of potted wheat seedlings of the cultivar “Kanzler” were sprayed to runoff point with an aqueous preparation of active compound which had been prepared from a stock solution made of 10% of active compound, 85% of cyclohexanone and 5% of emulsifier and were dusted 24 hours after the spray coating had dried on with spores of mildew of wheat (Blumeria graminis forma specialis tritici). The test plants were then placed in a greenhouse at 20-24° C. and 60-90% relative atmospheric humidity. After 7 days, the extent of the mildew development was determined visually in % infection of the entire leaf area.

[3] = system: Puccinia recondita; assay: Curative activity against brown rust of wheat caused by Puccinia recondita; conditions: curative spray 24 h after inoculation, wheat seedlings "Kanzler", 7 days
Method: as §1
Leaves of potted wheat seedlings of the cultivar “Kanzler” were dusted with spores of brown rust (Puccinia recondita). The pots were then placed in a chamber with high atmospheric humidity (90 to 95%) at 20-22° C. for 24 hours. During this period, the spores germinated and the germinal tubes penetrated into the leaf tissue. The following day, the infected plants were sprayed to runoff point with an aqueous preparation of active compound which had been prepared from a stock solution made of 10% of active compound, 85% of cyclohexanone and 5% of emulsifier. After the spray coating had dried on, the test plants were cultivated in a greenhouse at 20-22° C. and 65-70% relative atmospheric humidity for 7 days. The extent of the rust fungus development on the leaves was then determined.

Compound | % infection of the leaves after application of an aqueous preparation comprising . . . ppm of active compound ([1]; 16 ppm) | % infection of the leaves after application of an aqueous preparation comprising . . . ppm of active compound ([1]; 63 ppm) | % infection of the leaves after application of an aqueous preparation comprising . . . ppm of active compound ([1]; 250 ppm) | % infection of the leaves after application of an aqueous preparation comprising . . . ppm of active compound ([2]; 16 ppm) | % infection of the leaves after application of an aqueous preparation comprising . . . ppm of active compound ([2]; 63 ppm) | % infection of the leaves after application of an aqueous preparation comprising . . . ppm of active compound ([2]; 250 ppm) | % infection of the leaves after application of an aqueous preparation comprising . . . ppm of active compound ([3]; 250 ppm) | % infection of the leaves after application of an aqueous preparation comprising . . . ppm of active compound ([3]; 16 ppm) | % infection of the leaves after application of an aqueous preparation comprising . . . ppm of active compound ([3]; 63 ppm)
Cc1cccc(F)c1-c1c(Cl)nc2ncnn2c1NC(C)C(C)(C)C (single isomer, unassigned) [I.-12a] | 0% | 0% | 0% | 7% | 7% | 7% |  |  | 
Cc1cccc(F)c1-c1c(Cl)nc2ncnn2c1N[C@H](C)C(C)(C)C (single isomer, unassigned) [I.-12b] | 7% | 7% | 0% | 60% | 60% | 60% |  |  | 
C[C@@H](Nc1c(-c2c(F)cccc2Cl)c(Cl)nc2ncnn12)C(C)(C)C [I.-3] |  |  |  |  |  |  | 20% |  | 
CC(Nc1c(-c2c(F)cccc2F)c(Cl)nc2ncnn12)C(C)(C)C (stereo not shown) [I.-6] | 0% | 0% |  |  | 50% | 40% |  |  | 
CC(Nc1c(-c2c(Cl)cccc2Cl)c(Cl)nc2ncnn12)C(C)(C)C (stereo not shown) [I.-9] | 0% | 0% | 0% |  |  |  |  |  | 
Cc1cc(F)ccc1-c1c(Cl)nc2ncnn2c1NC(C)C(C)(C)C (stereo not shown) [I.-24] |  |  |  | 10% | 5% | 3% |  |  | 
CCCCCC(C)Nc1c(-c2c(F)cc(F)cc2F)c(Cl)nc2ncnn12 (stereo not shown) [I.-28] | 90% | 40% | 20% |  |  |  |  |  | 
C[C@@H](Nc1c(-c2c(F)cc(F)cc2F)c(Cl)nc2ncnn12)C1CCCCC1 [I.-31] | 40% | 3% | 0% | 15% | 7% | 5% |  |  | 
CC[C@@H](C)Nc1c(-c2ccccc2Cl)c(Cl)nc2ncnn12 [I.-42] |  |  |  |  |  |  | 5% | 30% | 20%
CC(Nc1c(-c2c(F)cccc2Cl)c(Cl)nc2ncnn12)C(C)(C)C [comparison (S)-amine of I.-3] |  |  |  |  |  |  | 100% |  | 
C[C@H](Nc1c(-c2c(F)cccc2F)c(Cl)nc2ncnn12)C(C)(C)C [comparison (S)-amine of I.-6] | 60% | 5% |  |  | 90% | 90% |  |  | 
C[C@H](Nc1c(-c2c(Cl)cccc2Cl)c(Cl)nc2ncnn12)C(C)(C)C [comparison (S)-amine of I.-9] | 100% | 100% | 100% |  |  |  |  |  | 
Cc1cccc(F)c1-c1c(Cl)nc2ncnn2c1NC(C)C(C)(C)C [comparison (S)-amine of I.-12a] | 100% | 100% | 100% | 100% | 100% | 100% |  |  | 
Cc1cccc(F)c1-c1c(Cl)nc2ncnn2c1NC(C)C(C)(C)C [comparison (S)-amine of I.-12b] | 100% | 100% | 100% | 100% | 100% | 100% |  |  | 
Cc1cc(F)ccc1-c1c(Cl)nc2ncnn2c1NC(C)C(C)(C)C [comparison (S)-amine of I.-24] |  |  |  | 60% | 60% | 15% |  |  | 
CCCCC[C@H](C)Nc1c(-c2c(F)cc(F)cc2F)c(Cl)nc2ncnn12 [comparison (S)-amine of I.-28] | 100% | 100% | 100% |  |  |  |  |  | 
C[C@H](Nc1c(-c2c(F)cc(F)cc2F)c(Cl)nc2ncnn12)C1CCCCC1 [comparison (S)-amine of I.-31] | 100% | 80% | 80% | 50% | 50% | 15% |  |  | 
